Entries after “also recorded” stand apart in the source; their conditions may differ.
Key:
[1] = tested on: GM03665 cells (fibroblasts from a subject with Friedreich's ataxia); assay: RSL-3 Toxicity Assay (RSL-3 Assay); format: cell-based, human; settings: for EC50: Homo sapiens, Fibroblast
From the text: Example 14: RSL-3 Toxicity Assay (RSL-3 Assay)
This assay has been adapted from: Hinman, A., Holst, C. R., Latham, J. C., Bruegger, J. J., Ulas, G., McCusker, K. P., Amagata, A., Davis, D., Hoff, K. G., Kahn-Kirby, A. H., Kim, V., Kosaka, Y., Lee, E., Malone, S. A., Mei, J. J., Richards, S. J., Rivera, V., Miller, G., Trimmer, J. K., Shrader, W. D., “Vitamin E hydroquinone is an endogenous regulator of ferroptosis via redox control of 15-lipoxygenase”, (2018) PLoS ONE 13(8): e0201369.
In brief, GM03665 cells (Coriell Institute) were seeded in 96-well plates (Sarstedt) in DMEM cell culture media containing 10% Fetal Bovine serum and 1% Penicillin-Streptomycin (Pen-Strep) antibiotic mix at the amount of 2×10^4/mL (100 μL or 2×10^3 cells per well). Cells were left to rest overnight at 37° C. in a humidified atmosphere with 5% CO2 to allow attachment of the cells to the culture plate. Test compounds were prepared as DMSO stocks (10 mM) and were serially diluted in cell culture media to obtain 2× working solutions. Cell media was discarded and replaced by 50 μL of test compound solutions or cell media with vehicle for control wells. Within 15 minutes, 2× working solution (4 μM) of 1S,3R-RSL-3 (CAS #1219810-16-8, Sigma-Aldrich) (diluted from 5 mM DMSO stock in cell culture media) was added. Final reaction volume was 100 μL and final DMSO concentration in reaction was kept below 0.2% (v/v) and equal in all wells. Final RSL-3 concentration was 2 μM and test compound final concentrations in reaction were up to 1000 nM. After 24 hours of incubation cell viability was assessed by MTT test. MTT (Sigma-Aldrich) solution 1 mg/mL in IX PBS (pH=7.4) was prepared 1 hour before the assay and filtered through Filtropur S 0.2 filters (Sarstedt). Cell media with test compounds was discarded and 100 μL of MTT solution was added to cells. The plates were incubated for 2 hours at +37° C. Thereafter, the MTT solution was removed and 100 μL of isopropanol was added to dissolve sediment. Absorption at 570 and 650 nm was measured using Hidex Sense microplate reader.
Compounds A and B and idebenone were not examined in this assay. The data presented in Table 1 indicates omaveloxolone was not active in this assay but that vatiquinone was active.
Discussion—Both BSO and RSL-3 are frequently utilized to induce the regulated cell death pathway known as ferroptosis. Ferroptosis is thought to require the joint activity of iron catalyzed oxidative stress and lipid peroxidation and has been described in cell and animal models of multiple neurodegenerative diseases, including Friedreich's Ataxia, Huntington Disease, Parkinson Disease and Alzheimer's Disease. […] Of note, the results for Compounds C-I and K were favorable with respect to inhibition of ferroptotic cell death when either BSO or RSL3 were used as initiating stimulus, differentiating these compounds from omaveloxolone and idebenone.

[2] = tested on: HepG2 human hepatocarcinoma cells; assay: Rotenone ATP Assay (Complex I by-pass assay); format: cell-based
Procedure: Example 13: Rotenone ATP Assay (a Complex I by-Pass Assay)
This assay has been adapted from Haefeli R H, Erb M, Gemperli A C, Robay D, Courdier Fruh I, et al. (2011) NQO1-Dependent Redox Cycling of Idebenone: Effects on Cellular Redox Potential and Energy Levels. PLoS ONE 6(3): e17963. HepG2 human hepatocarcinoma cells are co-incubated with the electron transport chain complex I toxin rotenone +/− compounds of interest and the corresponding effect on ATP synthesis is measured with a bioluminescent substrate.
The stock solutions of the test articles (See Table 1, below for a list of the test articles examined using this assay) were prepared in dimethyl sulfoxide (DMSO at 10 mM). Working stock solutions were prepared on the day of the experiment in glucose free, serum free Dulbecco's modified Eagles medium (DMEM) supplemented with 50 micromolar rotenone.
In brief, HepG2 cells were plated at 25,000 cells per well in low glucose (1 gram/Liter) DMEM medium+10% fetal calf serum and incubated for 24 hours. The following day, the media was decanted and subsequently replaced with glucose free/serum free DMEM which has been supplemented with 50 micromolar rotenone and compound of interest. Serial dilutions of compound were prepared in 3× dilutions beginning at 25 micromolar. The cells were incubated for 60 minutes in a humidified tissue culture incubator. Following incubation, ATP levels were quantified via bioluminescent assay (Promega […] Glo Assay kit) and readings were captured on a standard microplate reader.
ATP bioluminescence is plotted versus the log of compound of interest and data are used to generate EC50 values. Curve fitting is performed using a sigmoidal dose response curve fit function (GraphPad Prism software).
EC50 values were derived from seven-point dose response curves performed on n=3 technical replicates per dose. Robustness of curve fit was assessed as a quality control measure, with an R squared value of at least 0.80 being required for a successful curve fit. Compounds of interest showing an increase in ATP bioluminescence relative to vehicle control were verified in an independent biological replicate of n=3 technical replicates per dose.
This assay is a direct measure of the ability of compounds of interest to restore ATP production under conditions of inhibition of Complex I of the mitochondrial electron transport chain. As the majority of ATP produced via the electron transport chain is thought to derive from Complex I activity, significant impairment in Complex I function has dire biological consequences. Of note, Complex I mutations are thought to drive pathophysiology in multiple mitochondrial diseases, including Leigh syndrome and Leber's Hereditary Optic Neuropathy (LHON), while diminished Complex I activity and the resultant attenuation of ATP production has been shown in neurodegenerative diseases, including Friedreich's Ataxia, Parkinson's Disease and Huntington's Disease. In brief, most compounds were tested in the Rotenone Oxygraph Assay instead of this assay but only Idebenone was active amongst Omaveloxolone, Idebenone and Vatiquinone.

HepG2 cells = assay: Rotenone Oxygraph Assay (high-resolution respirometry of intact HepG2 cells); format: cell-based, human; settings: for activation at 10 µM: Homo sapiens
Procedure: Example 15: Rotenone Oxygraph Assay (High-Resolution Respirometry of Intact HepG2 Cells)
The Oxygraph-2k (O2k, OROBOROS INSTRUMENTS, Austria) was used for measurements of respiration of intact cells. The respirometry was performed in Dulbecco's Modified Eagle Medium (DMEM) high glucose without supplements. All experiments were performed at 37° C.
HepG2 cells (ATCC collection code HB-8065™) were cultured in 10 cm^2 culture dishes in DMEM high glucose medium supplemented with 10% fetal bovine serum (FBS) and 100 units/mL penicillin and 100 μg/mL streptomycin until approximately 90% confluence was reached. Immediately prior to performing the respirometric assay, the cells were washed with media without FBS, trypsinized and resuspended in DMEM high glucose without FBS.
The final concentration of intact cells in the O2k-chamber was 0.5-10^6/mL. After stabilization of respiration, the Complex I inhibitor, rotenone, at 1 μM final concentration was added to inhibit electron flux via Complex I. Then, compound to be tested was added at 10 μM final concentration, and the change in respiration rate of intact cells was monitored. […]

[3] = GM03665 cells, RSL-3 2 μM, 24 hours, MTT
[4] = intact HepG2 cells, rotenone 1 μM, compound 10 μM, increase in respiration rate

Compound: COC1=C(OC)C(=O)C(CCCCCCCCCC(F)(F)F)=C(C)C1=O [Compound C, 2,3-dimethoxy-5-methyl-6-(10,10,10-trifluorodecyl)cyclohexa-2,5-diene-1,4-dione]
- EC50 [1, 3]: 110 nM
- Complex I by-pass activity in Rotenone ATP Assay (in words) [2]: effective in rescuing cells; also recorded: comparable to that of Idebenone
- EC50 ([2]; Homo sapiens, 1 h, HepG2, 50 micromolar rotenone, 60 minutes, ATP bioluminescence): 1440 nM
- Complex I by-pass activity in Rotenone Oxygraph Assay (in words) (HepG2 cells): effective in rescuing cells
- activation at 10 µM (HepG2 cells; [4]): 63.9%

Compound: COC1=C(OC)C(=O)C(CCCCF)=C(C)C1=O [Compound J, 2-(4-fluorobutyl)-5,6-dimethoxy-3-methylcyclohexa-2,5-diene-1,4-dione]
- protection against RSL-3 toxicity (in words) [1]: essentially inactive
- EC50 [1, 3]: > 1000 nM
- Complex I by-pass activity in Rotenone ATP Assay (in words) [2]: not that effective
- Complex I by-pass activity in Rotenone Oxygraph Assay (in words) (HepG2 cells): not that effective; also recorded: least active
- activation at 10 µM (HepG2 cells; [4]): 21.8%

Compound: CC1(C)CC[C@]2(NC(=O)C(C)(F)F)CC[C@]3(C)[C@H](C(=O)C=C4[C@@]5(C)C=C(C#N)C(=O)C(C)(C)[C@@H]5CC[C@]43C)[C@@H]2C1 [Omaveloxolone, reference compound]
- protection against RSL-3 toxicity (in words) [1]: not active
- RSL-3 Assay EC50 [1, 3]: Inactive
- Complex I by-pass activity in Rotenone ATP Assay (in words) [2]: inactive
- ATP Rotenone Assay EC50 ([2]; HepG2, 50 micromolar rotenone, 60 minutes, ATP bioluminescence): Inactive
- Complex I by-pass activity in Rotenone Oxygraph Assay (in words) (HepG2 cells): inactive
- Rotenone Oxygraph Assay % Increase (HepG2 cells; [4]): Inactive
